Measured values taken from ChEMBL document CHEMBL2073985, “Increase in doxorubicin cytotoxicity by carvedilol inhibition of P-glycoprotein activity” (Biochem Pharmacol, 1999).

Biological target: ATP-dependent translocase ABCB1 (Homo sapiens, UniProt P08183)
Assay: TP_TRANSPORTER: increase in Calcein intracellular accumulation (Calcein: 50 mg/L, Carvedilol: 10 uM) in Hs578T-Dox cells
Format: functional, cell-based

Sequence of ATP-dependent translocase ABCB1 (P08183 whole entry): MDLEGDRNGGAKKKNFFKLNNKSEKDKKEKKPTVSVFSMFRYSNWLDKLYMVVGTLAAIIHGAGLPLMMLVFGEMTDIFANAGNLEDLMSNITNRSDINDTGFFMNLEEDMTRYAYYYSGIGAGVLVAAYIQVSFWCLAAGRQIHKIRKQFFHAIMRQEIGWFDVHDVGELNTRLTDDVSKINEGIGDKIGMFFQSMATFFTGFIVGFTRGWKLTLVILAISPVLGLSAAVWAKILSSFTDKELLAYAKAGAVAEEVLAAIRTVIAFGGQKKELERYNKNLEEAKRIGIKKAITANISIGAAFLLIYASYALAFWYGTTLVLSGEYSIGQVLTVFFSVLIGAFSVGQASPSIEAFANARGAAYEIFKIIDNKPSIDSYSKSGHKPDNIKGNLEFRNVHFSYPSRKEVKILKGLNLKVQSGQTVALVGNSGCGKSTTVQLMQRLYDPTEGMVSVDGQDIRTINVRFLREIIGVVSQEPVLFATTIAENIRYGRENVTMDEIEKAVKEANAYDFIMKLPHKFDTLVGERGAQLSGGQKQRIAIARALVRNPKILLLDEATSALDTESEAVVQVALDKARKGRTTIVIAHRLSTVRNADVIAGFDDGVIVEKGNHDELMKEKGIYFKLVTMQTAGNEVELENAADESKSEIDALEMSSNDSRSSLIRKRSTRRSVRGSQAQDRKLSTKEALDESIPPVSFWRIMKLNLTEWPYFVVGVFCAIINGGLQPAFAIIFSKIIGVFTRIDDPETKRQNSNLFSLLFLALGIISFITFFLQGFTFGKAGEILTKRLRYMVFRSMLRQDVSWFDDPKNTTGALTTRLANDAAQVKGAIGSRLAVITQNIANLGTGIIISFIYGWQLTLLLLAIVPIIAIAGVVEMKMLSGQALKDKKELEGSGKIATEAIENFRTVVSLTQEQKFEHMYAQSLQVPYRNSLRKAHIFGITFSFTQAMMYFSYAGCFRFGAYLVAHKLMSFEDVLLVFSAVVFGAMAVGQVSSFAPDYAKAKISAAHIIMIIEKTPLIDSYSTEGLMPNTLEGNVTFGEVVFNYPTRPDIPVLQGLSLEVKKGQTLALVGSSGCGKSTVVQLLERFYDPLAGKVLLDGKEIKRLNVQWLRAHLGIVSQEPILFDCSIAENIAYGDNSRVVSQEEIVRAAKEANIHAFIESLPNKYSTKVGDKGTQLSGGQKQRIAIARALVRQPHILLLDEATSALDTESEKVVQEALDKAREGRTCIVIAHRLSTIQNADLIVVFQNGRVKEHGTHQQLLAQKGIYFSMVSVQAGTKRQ

- Activity: inhibitor [+]
Structure (SMILES): COc1ccccc1OCCNCC(O)COc1cccc2[nH]c3ccccc3c12 (stereo unspecified) [CARVEDILOL]
